Results on 17 molecules are retold here after publication PMC4564171 (PLoS ONE, 2015).

In data set [1] the test system is 10 bp pvirB 51-60 FID (DNA, duplex) TAAAATAGTA/TACTATTTTA
The data set can be described thus: fluorescent intercalator displacement (ethidium bromide). As to conditions: 0.1 M NaCl; 0.1 M Tris-HCl pH 8.0, room temperature; 7.5 μM ethidium; 1.5 μM DNA; highest tested 100 μM.

For data set [2], the system named is 60 bp pvirB FID (DNA, duplex) AGAATATTATTCTTTTATCCAATAAAGATAAATTGCATCAATCCAGCTATTAAAATAGTA/TACTATTTTAATAGCTGGATTGATGCAATTTATCTTTATTGGATAAAAGAATAATATTCT
The data set is described as above. The conditions noted are these: 0.1 M NaCl; 0.1 M Tris-HCl pH 8.0, room temperature; 45 μM ethidium; 1.5 μM DNA; highest tested 100 μM.

Data set [3] concerns the target T1, MalE-VirF binding to the pvirB DNA probe (Shigella flexneri, UniProt P0A2T1).
T1 construct: pMALvirF was constructed by cloning the virF gene into the vector, pMAL-c2x; made in house; host or cells: Shigella flexneri BS103 (pBAD202-MALvirF); initial preparations in E. coli KS1000 (pMALvirF)
The experiment in a line: Fluorescence polarization (FP) assay, inhibition of MalE-VirF binding to the pvirB DNA probe. The conditions noted are these: read-out: % Inhibition at 100 μM. On the procedure:
The FP assays were conducted in duplicate in black, half-area, 96-well plates (Corning, Twerksbury, MA). First, 30 μL of 5’-Fluoroscein-pvirB DNA probe working standard was added to appropriate wells of the microplate. The pvirB DNA working standard was in TE/NaCl buffer (see above) supplemented with BSA (0.07 mg/mL) and salmon sperm DNA (0.7 mg/mL). Next, 30 μL of varying concentrations of MalE-VirF in amylose resin elution buffer (see above) was added to appropriate wells of the microplate. The final concentration of pvirB DNA was either 50 nM (for test wells) or none (for blank wells) and the final concentrations of MalE-VirF ranged from 45 μM to 0.12 μM (for test wells) or none (for control wells). For each concentration of MalE-VirF tested, a blank well was also set up that included all reagents except pvirB DNA. The microplate was then incubated for 20 minutes at 37°C and anisotropy was determined using a SpectraMax M5 plate reader (Molecular Devices, Sunnyvale, CA). Data was acquired using an excitation wavelength equal to 490 nm and an emission wavelength equal to 520 nm. To determine anisotropy the following equation was used: Anisotropy=F∥-G^*F⊥/F∥+2^*G^*F⊥^*1000 where: Fǁ = fluorescence intensity parallel to excitation source after blanking, F┴ = fluorescence intensity perpendicular to excitation source after blanking, and G = G-factor (correction for polarization bias of the detection system). After anisotropy was determined, data were plotted using GraphPad Prism (La Jolla, Ca) and fit to the following equation: […] where Y = specific binding, KD = dissociation constant, BMAX = maximum binding, X = MalE-VirF concentration, and b = y-intercept.
The FP protocol listed above was adapted to determine the IC50 of the small molecule hit compounds. Compounds (ranging from 200 μM to 3.1 μM) or DMSO for controls (1% final concentration) were added to the pvirB DNA probe working standard prior to addition to the microplates. For IC50 determination, the MalE-VirF and pvirB DNA probe concentrations were held constant at 20 μM and 50 nM, respectively. Positive controls were established to determine 100% VirF inhibition (no MalE-VirF present, 50 nM pvirB DNA probe) and negative controls were set up to determine no VirF inhibition (1% DMSO, 20 μM MalE-VirF, and 50 nM pvirB DNA probe). Once again blanks were set up to include all reagents, except pvirB DNA probe. All reactions were run in duplicate. Anisotropy was calculated as listed above and data were plotted using GraphPad Prism then fit to the following equation: Y=Bottom+(Top-Bottom)/(1+10^(X-logIC50)) where: Y = anisotropy, X = log of compound concentration (M), Top and Bottom = plateaus in anisotropy units, and LogIC50 = log of the concentration that inhibits 50% of VirF binding. In the presence of the compounds (no VirF), a small increase (~6%) in the DNA anisotropy was observed.
The FP protocol used for IC50 determination was adapted to test a library of small molecule inhibitors of VirF. All steps were identical to the above protocol except compounds were tested at only 100 μM final concentration and positive control samples included 100 μM of compound. Once again blanks were set up to include all reagents, except pvirB DNA probe, and all reactions were run in duplicate. Anisotropy was calculated as listed above, and %inhibition was calculated as follows: %inhibition=rneg-rtest/rneg^*100 where: rneg = average anisotropy for negative controls and rtest = average anisotropy in presence of compound. Note: All rneg and rtest values were normalized to positive control values.

Data set [4] concerns the target T2, MalE-VirF binding to the 5'Cy5-pvirB DNA probe (Shigella flexneri, UniProt P0A2T1).
T2 construct: pMALvirF was constructed by cloning the virF gene into the vector, pMAL-c2x; made in house; host or cells: Shigella flexneri BS103 (pBAD202-MALvirF); initial preparations in E. coli KS1000 (pMALvirF)
The experiment in a line: Electrophoretic mobility shift assay (EMSA) of MalE-VirF binding to pvirB DNA probe. As to conditions: compound 100 μM; MalE-VirF 1 μM; probe 0.25 μM. As for the experimental part: Reactions for the EMSAs were incubated in a 37°C water bath for 15 minutes. Reactions (15 μL total volume) were composed of 6 μL pvirB EMSA DNA probe (0.25 μM), 6 μL of either MalE-VirF (1.0 μM) or native gel loading buffer (Tris-HCl 0.3 M, 50% glycerol, 0.05% bromophenol blue, pH 7.0), 1 μL of salmon sperm DNA (0.7 mg/mL, Invitrogen), 0.5 μL BSA (0.07 mg/mL), and 1.5 μL of either DMSO or compound (100 μM). A 6% native polyacrylamide gel (29:1 acrylamide to bis-acrylamide ratio) was made with 0.25X TBE buffer (22 mM Tris Base, 22 mM boric acid, 0.5 mM EDTA, pH 9.5) for the EMSA. The gel was electrophoresed for 1 hour at 150 V in 0.25X TBE buffer at 4°C before samples were loaded. After the reaction solutions (12 μL) were loaded onto the gel, the gel was electrophoresed for an additional hour at 150 V and 4°C. The gel was then visualized using FluorChem M gel imager (Protein Simple, Santa Clara, CA) with a 607 nm excitation wavelength and a 710 nm emission filter.
In general terms: A gel shift assay detects complexes by their altered migration in electrophoresis.

The subject of data set [5] is spread of an active S. flexneri infection. The conditions noted are these: at concentrations at or below their IC50s in the reporter assay; cited from earlier work. Background: In a reporter assay the amount or activity of a reporter protein is the signal.
Data set [6] has as its target T3, MalE-VirF (Shigella flexneri, UniProt P0A2T1 1-262). The experiment in a line: fluorescence anisotropy. As to conditions: protein: recombinant; tags: N-terminal MalE (MBP) fusion, not cleaved; label: 5'-fluorescein on top strand; blunt. A general note: Polarisation of emitted light reports the rotation of a fluorescent probe.
The target of data set [7] is T3, MalE-VirF. The experiment in a line: EMSA; 1 uM MalE-VirF, 0.25 uM DNA. As to conditions: protein: recombinant, tags: N-terminal MalE (MBP) fusion, not cleaved, label: 5'-Cy5 on LUEGO strand (S5), blunt, three strands.
Data set [8] has as its target T3, MalE-VirF. The data set can be described thus: fluorescence anisotropy; 20 uM MalE-VirF, 50 nM DNA (r = 39 alone, 36 with protein). As to conditions: protein: recombinant; tags: N-terminal MalE (MBP) fusion, not cleaved; label: 5'-fluorescein on top strand; blunt.

One may read the inhibition as the drop in the measured response relative to a control, in per cent. As a reminder, the Kd is the free concentration of one partner at which half of the binding sites on the other are occupied at equilibrium, for simple one-to-one binding.

T1 sequence (P0A2T1 whole entry, looked up): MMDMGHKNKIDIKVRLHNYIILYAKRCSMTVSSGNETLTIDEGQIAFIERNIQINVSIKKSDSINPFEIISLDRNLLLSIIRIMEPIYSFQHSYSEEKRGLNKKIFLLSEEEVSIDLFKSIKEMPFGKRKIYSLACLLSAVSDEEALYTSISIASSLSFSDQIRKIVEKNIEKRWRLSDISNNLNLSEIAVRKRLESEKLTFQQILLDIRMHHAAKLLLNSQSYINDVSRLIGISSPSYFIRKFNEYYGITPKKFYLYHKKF
T3 sequence (P0A2T1 whole entry, the tested form may be a part): as the sequence (P0A2T1 whole entry, looked up) above
T2 sequence (P0A2T1 whole entry, looked up): as above

On to `CNCCOc1nc(-c2ccccc2)nc2c1oc1ccccc12`, for which the “%fluorescence” value turned out to be 95 ± 1% in data set [1] and 93 ± 3% in data set [2].
In the case of `CCN(CC)CCOc1nc(C)nc2c1oc1ccccc12` [compound 050908], in data set [3], the inhibition at 100 µM was determined as 18 ± 0.4%.
Same read-out and setting: next, `CN1CCN(c2nc(-c3ccccc3)nc3c2oc2ccccc23)CC1` [compound 078044]: 42 ± 0.4%; `CCc1nc(OCCN(C)C)c2oc3ccccc3c2n1` [compound 587469]: 16 ± 0.4%.
On the same count and under the same terms, next, `CCN(CC)c1cccc(Oc2nc(-c3ccccc3)nc3c2oc2ccccc23)c1` [compound 9660235]: 5 ± 0.2%; `CCN(CC)CCOc1nc(-c2ccccc2)nc2c1oc1ccccc12` [compound 587109]: 43 ± 1%.
On the same count and under the same terms, next, `CCN(CC)CCNc1nc(-c2ccccc2)nc2c1oc1ccccc12` [compound 048373]: 15 ± 0.4%.
With `O=c1[nH]c(-c2ccc(C(F)(F)F)cc2)nc2c1oc1ccccc12` [compound 765345], the inhibition at 100 µM in data set [3] is 1 ± 0.1%.
`c1ccc(-c2nc(Oc3cccnc3)c3oc4ccccc4c3n2)cc1` [compound 9660232]: in data set [3], the inhibition at 100 µM came out at 17 ± 2%.
Still for that read-out and setting: next, `c1ccc(-c2nc(N3CCN(c4ccccc4)CC3)c3oc4ccccc4c3n2)cc1` [compound 568180]: 2 ± 0.1%; `c1ccc(-c2nc(N3CCOCC3)c3oc4ccccc4c3n2)cc1` [compound 9111063]: -5 ± 0.1%.
Regarding `Clc1ccc2nc(COc3ccccc3)[nH]c2c1` [compound 153578], the “Effect on MalE-VirF binding to the pvirB DNA probe (EMSA)” value in data set [4] is given as “little to no effect on DNA binding”. For the same molecule, the “Inhibition of the spread of an active S. flexneri infection” value in data set [5] is reported as “approximately 75%”.
As for `CCN(CC)CCCOc1nc(-c2ccccc2)nc2c1oc1ccccc12` [compound 598089], the inhibition at 100 µM in data set [3] stood at 68%.

B1: pvirB FP probe (dsDNA)
DNA 1: AGAATATTATTCTTTTATCCAATAAAGATAAATTGCATCAATCCAGCTATTAAAATAGTA
DNA 2: TACTATTTTAATAGCTGGATTGATGCAATTTATCTTTATTGGATAAAAGAATAATATTCT
Take B1: the Kd with MalE-VirF [6] was found to be 2800 ± 1000 nM.

B2: pvirB EMSA probe (dsDNA)
DNA 1: GTGCCCTGGTCTGG
DNA 2: AGAATATTATTCTTTTATCCAATAAAGATAAATTGCATCAATCCAGCTATTAAAATAGTA
DNA 3: TACTATTTTAATAGCTGGATTGATGCAATTTATCTTTATTGGATAAAAGAATAATATTCTCCAGACCAGGGCAC
Take B2: the binding result with MalE-VirF [7] (LUEGO (S5) and top (S1) abut with a nick on bottom S2 (74 nt)) is “binds”.

B3: pScram FP probe (dsDNA)
DNA 1: TAAGTCCTAAATGGAAATTAAATTACGTAATTCACAAATATAGTATGATCATTTATATCA
DNA 2: TGATATAAATGATCATACTATATTTGTGAATTACGTAATTTAATTTCCATTTAGGACTTA
As for B3, the binding result with MalE-VirF [8] is listed as “no binding”.

B4: pScram EMSA probe (dsDNA)
DNA 1: GTGCCCTGGTCTGG
DNA 2: TAAGTCCTAAATGGAAATTAAATTACGTAATTCACAAATATAGTATGATCATTTATATCA
DNA 3: TGATATAAATGATCATACTATATTTGTGAATTACGTAATTTAATTTCCATTTAGGACTTACCAGACCAGGGCAC
As to B4, the binding result in the data set with MalE-VirF [7] (LUEGO (S5) and top (S3) abut with a nick on bottom S4 (74 nt)) is on record as “no binding”.
